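Where inhibition never reached the appropriate level, the endpoint shown equals the highest concentration tested. Otherwise, values were interpolated linearly from a five-concentration, 48-hour dose response in 96-well plates. At the GI50, growth is halved.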 Activity calls are given as the source filed them. Rule as the data show it: active = GI50 up to about 1.1 µM and inactive = higher. Where only a bound is given, the exact number is not on record here.

Some test systems named below: HT-29; HCT-15; KM12; RPMI-8226; 786-0; NCI-H460; UACC-62; HOP-92; NCI-H226; HCT-116; SNB-75; MOLT-4; U-251; IGROV-1; UO-31; A498.
Holding throughout (assay): inhibition of tumour cell growth, NCI panel, 48 h

Consider `CC(=O)C(CN(C)C)C(c1ccccc1)c1c(O)c2ccccc2oc1=O` (configuration not stated), for which the GI50 with HT-29 was > 100 µM (inactive); with HCT-15, greater than 100 µM; with KM12, > 100 µM (inactive); in the test with RPMI-8226, > 100 µM (inactive); in the test with 786-0 it was > 100 µM (inactive); in the test with NCI-H460, > 100 µM (inactive). Besides, the GI50 in the test on UACC-62 was > 100 µM (inactive); in the test with HOP-92, 49.9 µM (inactive); with NCI-H226, > 100 µM (inactive); with HCT-116 it was > 100 µM (inactive); in the test with SNB-75 it was 14.3 µM (inactive); in the test with MOLT-4, > 100 µM (inactive). Moreover, the GI50 in the test with U-251 and in the test on IGROV-1 was > 100 µM (inactive) throughout.

Regarding `O=c1cccccc1NCCCCCCNc1cccccc1=O`, the GI50 in the test on HT-29 is > 100 µM (inactive); in the test with HCT-15, greater than 100 µM; in the test with KM12, > 100 µM (inactive); with RPMI-8226, > 100 µM (inactive); with 786-0 it was > 100 µM (inactive); in the test on NCI-H460, > 100 µM (inactive). The GI50 with UACC-62 was > 100 µM (inactive); in the test with NCI-H226, > 100 µM (inactive); in the test with HCT-116, > 100 µM (inactive); in the test with SNB-75 it was 57.7 µM (inactive); in the test on MOLT-4, > 100 µM (inactive); in the test on UO-31, > 100 µM (inactive). Also, the GI50 in the test on U-251, in the test with A498 and in the test on IGROV-1 was > 100 µM (inactive) throughout.

As for `CC(=O)OCCOCNC(=S)N/N=C(\C)c1cnc2ccccc2n1`, the GI50 in the test with HT-29 was 29.6 µM (inactive); in the test with HCT-15, 34 µM; in the test on KM12, 46.5 µM (inactive); with RPMI-8226 it was 47.8 µM (inactive); with 786-0 it was 39.7 µM (inactive); with NCI-H460 it was 27 µM (inactive). Also, the GI50 is 14.2 µM (inactive) in the test with UACC-62; 36.4 µM (inactive) in the test with NCI-H226; 25.4 µM (inactive) in the test on HCT-116; 52.7 µM (inactive) in the test with SNB-75; 28.6 µM (inactive) with MOLT-4; 41.5 µM (inactive) in the test with UO-31. Besides, the GI50 in the test on U-251 is 29.1 µM (inactive); in the test with A498, > 100 µM (inactive); in the test with IGROV-1 it was 42 µM (inactive).

`O=C(Cc1ccccc1)NN1C(=O)C(Cl)C1c1ccc(Cl)cc1` (configuration not stated): the GI50 with HT-29 was > 100 µM (inactive); in the test with HCT-15, greater than 100 µM; with KM12, > 100 µM (inactive); in the test on RPMI-8226, 51.4 µM (inactive); in the test on 786-0, > 100 µM (inactive); with NCI-H460 it was > 100 µM (inactive). The GI50 with UACC-62 was > 100 µM (inactive); in the test on NCI-H226, > 100 µM (inactive); with HCT-116 it was > 100 µM (inactive); in the test with SNB-75, 84.5 µM (inactive); with MOLT-4 it was 30.6 µM (inactive); in the test on UO-31, 62.4 µM (inactive). Further, the GI50 with U-251 and with IGROV-1 was > 100 µM (inactive) in each case.

`COc1cc(Cc2cc(OC)c(OC)c(OC)c2)ccc1O`: the GI50 was 34.8 µM (inactive) with HT-29; 3.28 µM with HCT-15; 6.62 µM (inactive) in the test with KM12; 8.39 µM (inactive) in the test with RPMI-8226; 29.7 µM (inactive) in the test with 786-0; 9.95 µM (inactive) in the test with UACC-62. Also, the GI50 with HOP-92 was 19.3 µM (inactive); in the test on NCI-H226, 93.1 µM (inactive); with HCT-116, 5.19 µM (inactive); in the test with SNB-75, 2.88 µM (inactive); with MOLT-4, 4.27 µM (inactive); in the test on UO-31, 52.6 µM (inactive). Further, the results for the GI50 with U-251 and in the test on IGROV-1 were 19.9 µM (inactive) and > 100 µM (inactive), respectively.

The values above are taken from ChEMBL document CHEMBL1201862, “PubChem BioAssay data set” (2004).
